“Also recorded” adds a separate entry of the source.
Columns and labels:
L6 myoblasts = assay: Azide-induced Pasteur effect in L6 myoblasts measured by microphysiometer; format: cell-based; conditions: sodium azide 5 mM, 10 min exposure, normalized to first azide exposure 30 min prior
Experimental: FIG. 5 is a graph showing increase of the azide-induced Pasteur effect on L6 myoblasts by L-3′-AM-MECA (2) and L-3′-ADMdA (1). Percent changes in extracellular acidification rates upon treatment of L6 cells with sodium azide (5 mM) are shown. Responses are the average for 10 min exposure and these are normalized to the increase measured for the first exposure of the same cells to azide 30 min prior. Typically the second exposure causes a diminished Pasteur effect (see control). Error bars are SEM for n=3-5. * Statistically different from negative control (IR).
The ability of increasing the azide-induced Pasteur in L6 myoblasts was measured by microphysiometer.

[1] = test system: Langendorff perfused mouse heart; assay: Ischemia/reperfusion model on Langendorff perfused (isolated) mouse heart, cardioprotective activity; conditions: for maximum ischemic contracture, in words / time until onset of ischemic contracture, in words: 5 min pretreatment before 40 min ischemia; for cardiac tissue necrosis / infarction area by TTC staining, in words: 5 min pretreatment before ischemia-reperfusion; for infarction area (TTC staining, percentage of area) / maximum ischemic contracture: 5 min pretreatment; for infarction area (TTC staining, percentage of area) / maximum ischemic contracture / onset of contracture (time until onset of ischemic contracture): 40 min global ischemia; for infarction area (TTC staining, percentage of area): 60 min reperfusion, negative control 58.3±5.8%; for infarction area (TTC staining, percentage of area) / maximum ischemic contracture / onset of contracture (time until onset of ischemic contracture) / functional recovery (% rate pressure product): Mean±SEM; for maximum ischemic contracture: negative control 105.0±6.8 cmH2O; for onset of contracture (time until onset of ischemic contracture): negative control 10.5±1.0 min; for functional recovery (% rate pressure product): after 40 min ischemia and reperfusion, negative control 21.3±1.4; for functional recovery of contractility (% RPP), in words: upon reperfusion after 40 min ischemia
[2] = test system: mammalian nucleoside transporters; conditions: cited from earlier work
[3] = target: S-adenosyl-L-homocysteine hydrolase (Homo sapiens, UniProt P23526); conditions: cited from earlier work
S-adenosyl-L-homocysteine hydrolase, sequence (P23526 whole entry, species assumed): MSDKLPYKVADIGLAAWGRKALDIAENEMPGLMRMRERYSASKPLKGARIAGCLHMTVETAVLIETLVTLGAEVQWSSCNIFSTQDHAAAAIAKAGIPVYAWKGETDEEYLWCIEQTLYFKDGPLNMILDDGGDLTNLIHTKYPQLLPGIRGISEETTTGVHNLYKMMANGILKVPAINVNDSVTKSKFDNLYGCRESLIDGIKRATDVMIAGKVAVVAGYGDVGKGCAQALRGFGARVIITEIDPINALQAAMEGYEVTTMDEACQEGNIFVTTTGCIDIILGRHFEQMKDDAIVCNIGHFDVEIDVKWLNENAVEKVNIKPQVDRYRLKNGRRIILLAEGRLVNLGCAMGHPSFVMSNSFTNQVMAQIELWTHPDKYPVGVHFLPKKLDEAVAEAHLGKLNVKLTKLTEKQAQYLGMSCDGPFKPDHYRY

Structure (SMILES)	increase of azide-induced Pasteur effect (extracellular acidification rate) (L6 myoblasts) [%]	maximum ischemic contracture, in words [1]	time until onset of ischemic contracture, in words [1]	cardiac tissue necrosis / infarction area by TTC staining, in words [1]	infarction area (TTC staining, percentage of area) [1] [%]	maximum ischemic contracture [1] [cmH2O]	onset of contracture (time until onset of ischemic contracture) [1] [min]	functional recovery (% rate pressure product) [1]	cardiac standstill during treatment ([1]; during 5 min perfusion before ischemia, adenosine at 50 μM)	functional recovery of contractility (% RPP), in words [1]	interaction with mammalian nucleoside transporters [2]	activity on animal enzymes such as S-adenosyl-L-homocysteine hydrolase [3]	functional recovery of contractility (% RPP), in words ([1]; listed as L-3′-AM-MECA)
CNC(=O)[C@H]1O[C@@H](n2cnc3c(N)ncnc32)[C@H](O)[C@@H]1O [MECA, reference compound]	115	–	–	–	–	–	–	–	–	–	–	–	–
OC[C@H]1O[C@@H](n2cnc3c(NC4CCCC4)nc(Cl)nc32)[C@H](O)[C@@H]1O [CCPA, reference compound]	19	–	–	–	–	–	–	–	–	–	–	–	–
CN(C)c1ncnc2c1ncn2[C@H]1O[C@@H](CO)[C@H](N)[C@@H]1O [Compound 1, L-3′-amino-3′-deoxy-N^6-dimethyladenosine]	136	significant decrease of maximum ischemic contracture; also recorded: significantly decreased maximum ischemic contracture	increasing the time until onset of ischemic contracture	protective effect that is comparable or higher than adenosine; also recorded: showed decrease of cardiac tissue necrosis	39.8±5.7	74.3±7.8	14.5 ± 0.9	32.2±3.7 cmH2O/s % rate pressure product	neither showed cardiac standstill during treatment; also recorded: neither (1) nor (2) induce cardiac standstill	significant functional recovery of contractility	–	–	–
Nc1ncnc2c1ncn2[C@H]1O[C@@H](CO)[C@H](O)[C@@H]1O [L-adenosine]	–	–	–	–	–	–	–	–	–	–	does not interact	inactive	–
CNC(=O)[C@@H]1O[C@H](n2cnc3c(NC)ncnc32)[C@@H](O)[C@H]1N [Compound 2, L-3′-amino-3′-deoxy-N^6-methyladenosine-5′-N-methyluronamide]	128	significant decrease of maximum ischemic contracture; also recorded: significantly decreased maximum ischemic contracture	does not show a significant effect; also recorded: did not significantly alter this parameter	protective effect that is comparable or higher than adenosine; also recorded: showed decrease of cardiac tissue necrosis	31.8±5.4	87.6±6.3	–	–	–	did not show significant functional recovery	–	–	did not show any significant effect
Nc1ncnc2c1ncn2[C@@H]1O[C@H](CO)[C@@H](O)[C@H]1O [adenosine, reference compound]	–	lower maximal	delayed time until onset of ischemic contracture	significantly less evidence of necrosis	24.6±5.8	74.1±15.6	13.6 ± 0.6	30.7±3.4 cmH2O/s % rate pressure product	–	significantly increased recovery of function	–	–	–
